Where a SMILES comes first, the peptide text is derived from it. The star is where a group is joined. Galloyl = O=C(c1cc(O)c(O)c(O)c1)*
Tests used:
[1] = system: HCVcc FL-J6/JFH-50C19Rluc2AUbi (genotype 2a); assay: HCVcc replication (full-length replicon, Renilla luciferase / protein); type: cell-based, hepatitis C virus; conditions: 20 μM; 48 h; viral RNA (luciferase) and protein levels
Source text: Figure 4 GA-Hecate effect on HCVcc replication. (A) HCV RNA expression measured by the Renilla luciferase reporter gene. (B) HCV non-structural (NS5A) protein expression. GAPDH was used as an endogenous control. Water was used as a negative control of virus replication inhibition (Control (−)), and cyclosporine A was used as a positive control of virus replication inhibition (Control (+)). Bars represent triplicate samples of three independent assays. RLU - Relative light units. ***P < 0.001 vs Control (−); F = 273.2, df (between columns) = 5.
Cell lines harboring subgenomic or genomic replicons were seeded at 5 × 10^3 cells /well on 96-well plates and the compounds were added 24 h post-seeding, in a concentration range between 2.5–20 μM. […] Luciferase activity was measured using a luminometer (FLUOstar Omega/BMG LABTECH, Offenburg, BW, DE). […]
HCV (FL J6/JFH) infected cells were used to evaluate virus protein expression after peptide treatment. […] Total protein was quantified using a BCA assay (Thermo-Scientific) following the manufacturer’s instructions. […] Finally, the membrane was incubated for 1 minute with Pierce ECL Western Blotting Substrate (Thermo-Scientific-Pierce, Rockford, IL, USA), and the luminescence intensity was captured on a Chemi-Doc System (Bio-Rad, Amadora, PT). […]

[2] = system: JFH-1-infected Huh-7.5 cells; assay: HCV release/assembly evaluation (qPCR intra/extracellular HCV RNA); type: cell-based, hepatitis C virus; conditions: 24 h treatment; 5, 10 and 20 μM, not dose-dependent
Protocol: Figure 6 GA-Hecate effect on HCV Release and infectivity. (A) HCV-infected Huh-7.5 cells were treated for 24 h with GA-Hecate. RNA was isolated and summited to qPCR for HCV 5′ UTR. Intracellular HCV expression was normalized by GAPDH, and extracellular HCV expression was calculated by absolute quantification. The difference between the intra and extracellular RNA expression represents the HCV release. Bars represent triplicate samples of three independent assays. Naringenin (200 μM) was used as a positive control of HCV release inhibition and water was a negative control of HCV release inhibition. ^aP < 0.001 vs Control (−), intracellular. ^bP < 0.001 vs Control (−), extracellular. F = 22.58, df (row factor) = 4. (B) Infectivity. HCV-infected Huh-7.5 cells were treated for 24 h with GA-Hecate, and then the supernatant was collected and used to infect naïve Huh-7.5 cells. The capacity of HCVcc particles to generate a new infection after GA-Hecate treatment is represented by the bars. […]
JFH-1-infected Huh-7.5 cells were used to evaluate the GA-Hecate effect on virus release/assembly. […] After treatment, the intracellular and extracellular RNA content was isolated following the TRIzol reagent protocol and quantified by qPCR of the HCV 5′ UTR region (forward: 5′ CGGGAGAGCCATAGTGG; reverse, 5′ […]; probe: 5′-FAM-[…]-TAMRA-3) using TaqMan® Universal PCR Master Mix (Thermo Scientific, CA, USA).

HCV JFH1 3' UTR dsRNA = assay: dsRNA intercalation assay (agarose gel); type: binding, hepatitis C virus; conditions: peptide 20 μM; 45 min; 1% agarose gel
Source text: scans, with a resolution of 0.2 nm. To investigate the conformational changes by the membrane environments, the data were obtained in vesicles containing POPC:POPS (9:1), and POPC:Cholesterol (9:1). CD spectra were typically recorded as an average of the eight scans that were obtained in millidegrees and converted to molar ellipticity [θ] in deg·cm2·dmol-1. The peptide concentration was 10 μmol·L-1, and the proportion of lipid/peptide was 100 (L/P = 100).
Effect of peptides on dsRNA intercalation assay
To assess GA-Hecate’s dsRNA intercalation capacity, we performed an assay adapted from Krawczyk et al. 2009. Initially, a PCR reaction was made and the HCV JFH1 3’ untranslated region (UTR) (accession no. AB047639) was amplified by specific primers flanked by a T7 promoter sequence (F
273 bp, was purified using a ZymocleanTM Gel DNA recovery Kit (Zymo Research) and used as a template for in vitro dsRNA production using a T7 Ribomax Express kit (Promega). […] GA-Hecate, Hecate and Lys-Hecate (20 μM) were incubated with […] of dsRNA, for 45 min, and subsequently analysed in 1% agarose gel 1X TAE stained with ethidium bromide. […]
In order to guarantee that the virus inhibition effect was not related exclusively to cell death trigger, all concentrations were evaluated to necrosis and apoptosis induction. […]

CC(C)C[C@H](NC(=O)[C@H](C)NC(=O)[C@H](CCCCN)NC(=O)[C@H](CCCCN)NC(=O)[C@H](CC(C)C)NC(=O)[C@H](C)NC(=O)[C@H](CCCCN)NC(=O)[C@H](CCCCN)NC(=O)[C@H](CC(C)C)NC(=O)[C@H](CCCCN)NC(=O)[C@H](CCCCN)NC(=O)[C@H](CC(C)C)NC(=O)[C@H](C)NC(=O)[C@H](CCCCN)NC(=O)[C@H](CCCCN)NC(=O)[C@H](CC(C)C)NC(=O)[C@H](C)NC(=O)[C@H](CCCCN)NC(=O)[C@H](CC(C)C)NC(=O)[C@H](C)NC(=O)[C@H](CC(C)C)NC(=O)[C@H](C)NC(=O)[C@H](Cc1ccccc1)NC(=O)c1cc(O)c(O)c(O)c1)C(N)=O [GA-Hecate] (Galloyl-FALALKALKKALKKLKKALKKAL-NH2)
inhibition of HCVcc replication [1]: approximately 85% | inhibition of virus release [2]: approximately 50% | intercalation in HCV dsRNA (HCV JFH1 3' UTR dsRNA): able to intercalate in HCV dsRNA
